We go through two compounds from patent US5075464A, “17β-(cyclopropylamino)androstene derivatives” (Merrell Dow Pharmaceuticals Inc., priority 1989, dated 1991).

This test has as its target T1, enzymes in the synthesis of aldosterone (Rattus norvegicus, UniProt P30099).
T1 construct: adrenal capsule/glomerulosa homogenates were prepared (6 mg/ml); from tissue; host or cells: adrenal capsule/glomerulosa of sodium-deficient young male Sprague-Dawley rats (homogenate, 500xg supernatant)
As to the kind of experiment: inhibition of aldosterone formation from [3H]-DOC in adrenal capsule/glomerulosa homogenates. The format is biochemical, Sprague-Dawley rats. As to conditions: Kitz-Wilson plots, rat adrenal capsule/glomerulosa homogenate. How it is done: Young male Sprague-Dawley rats were maintained on a sodium-deficient diet for about two weeks prior to use. From these animals, adrenal capsule/glomerulosa homogenates were prepared (6 mg/ml) in pH 7.4 assay buffer [MgCl2 8.5 mM, CaCl2 2.7 mM, KCl 3.13 mM, NaCl 7.591 mM, TRIS 50 mM and 0.1% triethylamine] and centrifuged 500xg for 10 minutes.
Assays were conducted in 35 ml glass tubes maintained at 25° C. in a Dubnoff shaker with 95% O2 /5% CO2. The tubes contained the following material: 100 μl of an NADPH+ generating system, 300 μl of adrenal capsular/glomerulosa cytosol, and 50 μl of test compound or buffer (control). After initial preincubation intervals of 20 minutes, the 10-minute assay was started by the addition of 50 μl of tritium-labelled substrate, i.e., 1 μM [^3 H]-DOC. Reactions were quenched by the addition of 5 ml of ethyl acetate and non-radiolabelled steroids were also added. […]
Substrate remaining and products formed were monitored by UV absorbance at 246 nm and the amount of steroid compound present was quantified by [^3 H] radioactivity. […] The Ki time-dependent inhibition and the t1/2 for enzyme inactivation at infinite inhibitor concentration (t50) was determined by the linear regression analyses of t1/2 vs. 1/[I] data of Kitz-Wilson plots Using this procedure, the following results were observed: […]

In the case of `CN(C1CC1)[C@H]1CC[C@H]2[C@@H]3CCC4=CC(=O)CC[C@]4(C)[C@H]3CC[C@]12C` [17β-[N-methyl(cyclopropylamino)]androst-4-en-3-one], the “t50 (t1/2 for enzyme inactivation at infinite inhibitor concentration)” value amounted to 15.4 min. The result for `CN(C1CC1)[C@H]1CC[C@H]2[C@@H]3CC=C4C[C@@H](O)CC[C@]4(C)[C@H]3CC[C@]12C` [17β-[N-methyl(cyclopropylamino)]androst-5-en-3β-ol] reads 9.0 min.
